As a reminder, the IC50 is the midpoint of a concentration-inhibition curve.

6 sequences from article PMC4171664 (Diabetes, 2014) can be followed below.

No end group written: not given here.

For the assay, the target named is T1, I-A^g7 (Mus musculus, UniProt P04228+Q31135).
T1 sequence (P04228 24-256): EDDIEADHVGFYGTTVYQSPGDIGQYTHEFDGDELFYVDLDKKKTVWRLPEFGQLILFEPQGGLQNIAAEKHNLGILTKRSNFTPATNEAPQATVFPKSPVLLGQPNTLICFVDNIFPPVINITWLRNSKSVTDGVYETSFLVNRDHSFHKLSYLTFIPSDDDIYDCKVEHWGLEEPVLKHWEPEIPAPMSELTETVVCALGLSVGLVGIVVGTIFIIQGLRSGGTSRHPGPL
T1 sequence (Q31135 1-263): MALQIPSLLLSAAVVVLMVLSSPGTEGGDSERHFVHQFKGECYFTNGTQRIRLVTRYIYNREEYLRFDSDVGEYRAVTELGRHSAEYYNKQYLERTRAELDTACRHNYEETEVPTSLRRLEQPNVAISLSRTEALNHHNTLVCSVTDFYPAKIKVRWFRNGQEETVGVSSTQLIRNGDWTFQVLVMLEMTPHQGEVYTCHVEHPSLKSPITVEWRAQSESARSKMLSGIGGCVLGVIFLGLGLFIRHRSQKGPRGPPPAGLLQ
It counts as binding, NOD mouse.

In turn, AVDGVISVHSLHIW [292–305] registered an IC50 of 5.1 µM.

The sequence GHVAGSLAILTDAA [91–104] had an IC50 of 0.6 µM.

In the case of GYNHKDVQANASVR [201–214], the IC50 amounted to 88.2 µM.

Regarding LTIQIESAADQDPSC [345–359], it took 1.1 µM to reach half-maximal inhibition (IC50).

On to RTGIAQALSSFDLHS [330–344], for which the IC50 worked out at 5.7 µM.

On to SVRAAFVHALGDVF [212–225], for which the IC50 is 0.6 µM.
